# According to patent US20260216183A1 (SHENZHEN NEWDEL BIOTECH CO., LTD., priority 2023, published 2026):
# Columns and labels:
# [1] = Mouse body weight change in the oral administration experiment; format: in vivo, Balb/c mice; conditions: vs group 2 (vehicle)
# Description: (§1) (1) Screening and grouping: 60 female 6- to 8-week-old Balb/c mice in total were used as experimental animals in this project, which were obtained from Shanghai Model Organisms Center, Inc. The first grouping was done before the start of the experiment. […] (2) Animal modeling: The day when the first grouping was done was designated as day (−7). The backs of the mice were depilated with depilatory cream (area of about 2 cm×3 cm). […] The 1% OXA solution was prepared by weighing 0.1 g of OXA powder, adding 10 mL of an acetone solution, mixing well, and dissolving. […] (3) The administration mode of the test substance: […] The mice were sacrificed on day 21. The skin of the right ear of the mice was left for pathological examination. The thickness of the epidermal layer and inflammatory cell infiltration were measured by H&E staining, and the thickness of the dermis layer was measured by Masson staining.
# [2] = system: OXA-induced atopic dermatitis mouse model; assay: OXA-induced atopic dermatitis mouse model, oral administration; format: in vivo, Balb/c mice; conditions: for Inflammatory cell content in right ear tissue, Significance level: compared to G2 (vehicle); for Clinical scores of dorsal skin, Significance level / Rate of change in the thickness of the pinna of the right ear, Significance level / Thickness of dermis layer of right ear, Significance level / Thickness of epidermal layer of right ear, Significance level / Pinna thickness change rate at time point, Significance level: vs group 2 (vehicle); for Number of inflammatory cells per mm: right ear tissue, Mean ± SEM
# Description: as §1
# TRKA = target: T1, TRKA (Homo sapiens, UniProt P04629); assay: TRKA enzyme activity assay (HTRF); format: biochemical; conditions: ATP 25 μM
# T1 construct: purchased Carna 08-186
# T1 sequence (P04629 33-796): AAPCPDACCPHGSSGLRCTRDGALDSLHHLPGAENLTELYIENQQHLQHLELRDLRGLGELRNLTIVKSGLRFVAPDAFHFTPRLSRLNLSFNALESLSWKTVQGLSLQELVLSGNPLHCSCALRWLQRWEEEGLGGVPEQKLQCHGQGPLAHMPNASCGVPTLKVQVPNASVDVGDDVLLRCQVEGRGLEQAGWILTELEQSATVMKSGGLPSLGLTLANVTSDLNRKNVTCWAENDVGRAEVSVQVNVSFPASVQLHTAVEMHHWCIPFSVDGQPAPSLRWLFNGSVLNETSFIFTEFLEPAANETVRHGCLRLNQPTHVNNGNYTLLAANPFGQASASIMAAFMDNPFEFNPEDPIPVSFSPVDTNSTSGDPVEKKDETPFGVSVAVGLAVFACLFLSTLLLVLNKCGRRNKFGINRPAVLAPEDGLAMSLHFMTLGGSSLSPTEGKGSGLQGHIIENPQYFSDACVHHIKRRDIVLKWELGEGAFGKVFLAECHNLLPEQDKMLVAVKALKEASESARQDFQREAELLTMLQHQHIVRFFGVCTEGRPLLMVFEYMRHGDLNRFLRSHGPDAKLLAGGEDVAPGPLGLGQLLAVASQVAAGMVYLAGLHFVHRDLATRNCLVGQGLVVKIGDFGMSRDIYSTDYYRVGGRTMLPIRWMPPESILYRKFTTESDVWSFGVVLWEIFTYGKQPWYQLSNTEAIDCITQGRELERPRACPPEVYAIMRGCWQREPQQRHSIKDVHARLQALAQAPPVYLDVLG
# Description: (§2) A kinase phosphorylates a substrate, and an antibody labeled with Eu-CryPtate binds to a phosphorylation site in the substrate; streptavidin-XL665 binds to the substrate biotin; when Eu and XL665 are close, Eu as a donor emits emission light (620 nm) after being excited by a light source (320 nm) and transfers energy resonance to a close XL665 receptor, and the receptor emits emission light (665 nm) after being excited; the specific signal is proportional to the phosphorylated substrate; when an inhibitor is added, the phosphorylation level is inhibited, the emission light at 665 nm is undetectable, and only the emission light at 620 nm is detected, so as to evaluate the level of inhibition of kinase activity by the compound.
# Replicate wells were set for the assay. 25 nL of the compound was transferred to a 384 reaction plate (Catalog No. 784075, Greiner) using Echo 665. […] 2.5 μL of TRKA (1.5 nM, 08-186, Carna) solution was transferred to a 384 reaction plate. The plate was centrifuged at 1000 rpm for 60 s using a centrifuge and incubated at 25° C. for 10 min. […] The fluorescence signals at 620 nm (Cryptate) and 665 nm (XL665) were read using a BMG microplate reader. The ratio of the fluorescence signals, i.e., (665 nm/620 nm)×10000, in each well was calculated, and the ratio represented the degree of the kinase activity.
# DDR1 = target: T2, DDR1 (Homo sapiens, UniProt Q08345); assay: DDR1 enzyme activity assay (HTRF); format: biochemical; conditions: ATP 25 μM
# T2 construct: purchased Carna 08-113
# T2 sequence (Q08345 19-913): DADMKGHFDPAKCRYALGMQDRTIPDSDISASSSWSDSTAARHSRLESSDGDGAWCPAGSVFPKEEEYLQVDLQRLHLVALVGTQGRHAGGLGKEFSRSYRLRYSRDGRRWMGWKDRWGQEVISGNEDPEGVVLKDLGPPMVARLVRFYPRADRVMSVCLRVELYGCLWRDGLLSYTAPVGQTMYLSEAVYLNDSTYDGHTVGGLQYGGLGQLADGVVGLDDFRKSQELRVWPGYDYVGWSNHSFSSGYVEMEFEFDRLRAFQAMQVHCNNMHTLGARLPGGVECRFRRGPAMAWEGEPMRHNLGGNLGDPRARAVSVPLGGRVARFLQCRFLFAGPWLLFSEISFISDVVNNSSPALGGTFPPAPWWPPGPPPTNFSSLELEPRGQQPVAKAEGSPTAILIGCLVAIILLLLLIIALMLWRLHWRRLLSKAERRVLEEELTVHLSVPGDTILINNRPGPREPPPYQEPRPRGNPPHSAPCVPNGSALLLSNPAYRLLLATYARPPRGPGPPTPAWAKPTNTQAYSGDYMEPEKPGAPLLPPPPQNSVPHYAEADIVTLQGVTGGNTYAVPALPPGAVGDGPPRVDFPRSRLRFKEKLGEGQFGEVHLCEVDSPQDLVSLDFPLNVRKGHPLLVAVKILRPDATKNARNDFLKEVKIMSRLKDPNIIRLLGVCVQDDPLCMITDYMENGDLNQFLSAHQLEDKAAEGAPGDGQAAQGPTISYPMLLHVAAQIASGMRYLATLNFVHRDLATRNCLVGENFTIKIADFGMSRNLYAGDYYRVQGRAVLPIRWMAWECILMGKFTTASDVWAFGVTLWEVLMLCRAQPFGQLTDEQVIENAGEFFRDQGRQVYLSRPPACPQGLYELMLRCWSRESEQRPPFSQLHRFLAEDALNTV
# Description: as §2
# Replicate wells were set for the assay. […] 2.5 μL of DDR1 (2.7 nM, 08-113, Carna) solution was transferred to a 384 reaction plate. The plate was centrifuged at 1000 rpm for 60 s using a centrifuge and incubated at 25° C. for 10 min. A mixed solution of 2× biotin-labeled tyrosine kinase substrate (1 μM) and ATP (25 μM) was prepared using the kinase reaction buffer. […] The fluorescence signals at 620 nm (Cryptate) and 665 nm (XL665) were read using a BMG microplate reader. The ratio of the fluorescence signals, i.e., (665 nm/620 nm)×10000, in each well was calculated, and the ratio represented the degree of the kinase activity.
# TRKC = target: T3, TRKC (Homo sapiens, UniProt Q16288); assay: TRKC enzyme activity assay (HTRF); format: biochemical; conditions: ATP 25 μM
# T3 construct: purchased Carna 08-197
# T3 sequence (Q16288 32-839): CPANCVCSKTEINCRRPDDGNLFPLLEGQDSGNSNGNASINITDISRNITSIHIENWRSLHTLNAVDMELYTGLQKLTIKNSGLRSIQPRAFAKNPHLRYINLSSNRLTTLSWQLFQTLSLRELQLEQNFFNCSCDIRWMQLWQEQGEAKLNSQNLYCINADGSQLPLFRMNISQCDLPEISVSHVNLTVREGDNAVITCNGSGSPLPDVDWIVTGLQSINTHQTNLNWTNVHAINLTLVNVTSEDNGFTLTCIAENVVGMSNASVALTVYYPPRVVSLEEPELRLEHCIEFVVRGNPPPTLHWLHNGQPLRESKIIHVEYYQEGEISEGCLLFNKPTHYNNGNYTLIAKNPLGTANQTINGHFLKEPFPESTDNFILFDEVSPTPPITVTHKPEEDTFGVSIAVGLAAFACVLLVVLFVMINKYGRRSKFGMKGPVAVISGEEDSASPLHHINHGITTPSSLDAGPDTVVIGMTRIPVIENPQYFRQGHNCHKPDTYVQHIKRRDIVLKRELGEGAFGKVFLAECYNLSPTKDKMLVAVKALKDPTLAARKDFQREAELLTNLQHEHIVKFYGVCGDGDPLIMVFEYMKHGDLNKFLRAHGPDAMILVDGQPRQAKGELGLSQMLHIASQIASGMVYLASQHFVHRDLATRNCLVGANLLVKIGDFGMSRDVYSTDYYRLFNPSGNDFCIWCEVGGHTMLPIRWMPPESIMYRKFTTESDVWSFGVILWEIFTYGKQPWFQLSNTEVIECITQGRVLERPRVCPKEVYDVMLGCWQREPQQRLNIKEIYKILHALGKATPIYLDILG
# Description: as §2
# Replicate wells were set for the assay. […] 2.5 μL of TRKC (1.5 nM, 08-197, Carna) solution was transferred to a 384 reaction plate. The plate was centrifuged at 1000 rpm for 60 s using a centrifuge and incubated at 25° C. for 10 min. A mixed solution of 2× biotin-labeled tyrosine kinase substrate (1 μM) and ATP (25 μM) was prepared using the kinase reaction buffer. […] The fluorescence signals at 620 nm (Cryptate) and 665 nm (XL665) were read using a BMG microplate reader. The ratio of the fluorescence signals, i.e., (665 nm/620 nm)×10000, in each well was calculated, and the ratio represented the degree of the kinase activity.
# DDR2 = target: T4, DDR2 (Homo sapiens, UniProt Q16832); assay: DDR2 enzyme activity assay (HTRF); format: biochemical; conditions: ATP 25 μM
# T4 sequence (Q16832 22-855): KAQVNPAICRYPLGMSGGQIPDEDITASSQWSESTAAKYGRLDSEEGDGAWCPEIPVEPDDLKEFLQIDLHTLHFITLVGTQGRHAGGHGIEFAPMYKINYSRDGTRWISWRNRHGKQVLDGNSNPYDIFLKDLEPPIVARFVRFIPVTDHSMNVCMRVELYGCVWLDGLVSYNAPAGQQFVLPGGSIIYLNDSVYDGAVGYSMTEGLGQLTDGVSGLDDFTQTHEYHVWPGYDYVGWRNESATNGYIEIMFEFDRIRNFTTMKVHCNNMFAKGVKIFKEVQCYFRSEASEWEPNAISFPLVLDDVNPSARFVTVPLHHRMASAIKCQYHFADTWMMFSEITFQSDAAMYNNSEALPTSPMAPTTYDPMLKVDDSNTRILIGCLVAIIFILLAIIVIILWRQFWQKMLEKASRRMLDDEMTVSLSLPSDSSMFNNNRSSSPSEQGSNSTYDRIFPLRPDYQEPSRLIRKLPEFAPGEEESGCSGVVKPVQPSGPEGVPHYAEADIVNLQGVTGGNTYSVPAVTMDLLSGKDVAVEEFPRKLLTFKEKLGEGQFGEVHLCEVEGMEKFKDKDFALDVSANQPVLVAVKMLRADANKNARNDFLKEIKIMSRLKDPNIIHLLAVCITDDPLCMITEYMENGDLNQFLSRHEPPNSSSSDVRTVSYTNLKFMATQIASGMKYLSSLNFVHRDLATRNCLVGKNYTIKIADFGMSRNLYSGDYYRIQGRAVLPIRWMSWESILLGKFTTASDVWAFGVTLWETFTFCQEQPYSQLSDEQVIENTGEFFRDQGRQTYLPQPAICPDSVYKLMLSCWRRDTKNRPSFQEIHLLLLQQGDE
# Description: Replicate wells were set for the assay. […] 2.5 μL of DDR2 (1.3 nM, 08-114, Carna) solution was transferred to a 384 reaction plate. The plate was centrifuged at 1000 rpm for 60 s using a centrifuge and incubated at 25° C. for 10 min. A mixed solution of 2× biotin-labeled tyrosine kinase substrate (1 μM) and ATP (25 μM) was prepared using the kinase reaction buffer. 2.5 μL of the mixed solution of the substrate and ATP was added to the reaction plate to start the reaction, and the plate was centrifuged at 1000 rpm for 60 s using the centrifuge. The plate was sealed with a plate-sealing film and incubated at 25° C. for 40 min. 5 μL of a mixed solution of Eu-CryPtate-labeled anti-tyrosine kinase antibody and streptavidin-XL665 was added to each well of the reaction plate. The plate was centrifuged at 1000 rpm for 1 min and incubated at 25° C. for 60 min. The fluorescence signals at 620 nm (Cryptate) and 665 nm (XL665) were read using a BMG microplate reader. The ratio of the fluorescence signals, i.e., (665 nm/620 nm)×10000, in each well was calculated, and the ratio represented the degree of the kinase activity.
# CSF1R = target: T5, CSF1R (Homo sapiens, UniProt P07333); assay: CSF1R enzyme activity assay (HTRF); format: biochemical; conditions: ATP 25 μM
# T5 construct: purchased Carna 08-114
# T5 sequence (P07333 538-972 limits assumed): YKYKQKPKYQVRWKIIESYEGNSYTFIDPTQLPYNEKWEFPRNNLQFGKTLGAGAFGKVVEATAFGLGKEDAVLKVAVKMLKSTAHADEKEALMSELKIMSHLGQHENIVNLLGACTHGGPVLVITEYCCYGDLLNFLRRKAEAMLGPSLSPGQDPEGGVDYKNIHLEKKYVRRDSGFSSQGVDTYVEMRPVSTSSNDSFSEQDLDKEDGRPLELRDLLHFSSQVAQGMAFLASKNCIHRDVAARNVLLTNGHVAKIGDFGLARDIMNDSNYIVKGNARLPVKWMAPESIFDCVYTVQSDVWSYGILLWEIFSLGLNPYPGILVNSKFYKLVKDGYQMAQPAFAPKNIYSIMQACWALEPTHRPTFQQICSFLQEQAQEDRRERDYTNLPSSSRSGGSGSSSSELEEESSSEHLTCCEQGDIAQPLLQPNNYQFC
# Description: as §2
# Replicate wells were set for the assay. […] 2.5 μL of CSF1R (1.3 nM, 08-114, Carna) solution was transferred to a 384 reaction plate. The plate was centrifuged at 1000 rpm for 60 s using a centrifuge and incubated at 25° C. for 10 min. A mixed solution of 2× biotin-labeled tyrosine kinase substrate (1 μM) and ATP (25 μM) was prepared using the kinase reaction buffer. […] The fluorescence signals at 620 nm (Cryptate) and 665 nm (XL665) were read using a BMG microplate reader. The ratio of the fluorescence signals, i.e., (665 nm/620 nm)×10000, in each well was calculated, and the ratio represented the degree of the kinase activity.
smiles,measurement,setting,value
"CCCS(=O)(=O)N[C@H]1C[C@@H](N(C)c2ncnc3[nH]ccc23)C1 [Abrocitinib, reference compound]","Rate of change in body weight, Significance level",[1]; 17 mpk p.o. once daily 22 days,ns (p>0.05)
same,"Inflammatory cell content in right ear tissue, Significance level",[2]; 17 mpk p.o. once daily 22 days,* (*p<0.05)
same,"Clinical scores of dorsal skin, Significance level",[2]; 17 mpk p.o. once daily 22 days,* (*p<0.05)
same,"Rate of change in the thickness of the pinna of the right ear, Significance level",[2]; 17 mpk p.o. once daily 22 days,**** (****p<0.0001)
same,"Thickness of dermis layer of right ear, Significance level",[2]; 17 mpk p.o. once daily 22 days,*** (***p<0.001)
same,"Thickness of epidermal layer of right ear, Significance level",[2]; 17 mpk p.o. once daily 22 days,ns (p>0.05)
same,"Pinna thickness change rate at time point, Significance level","[2]; day 3, 17 mpk p.o. once daily",ns (p>0.05)
same,"Pinna thickness change rate at time point, Significance level","[2]; day 5, 17 mpk p.o. once daily",ns (p>0.05)
same,"Pinna thickness change rate at time point, Significance level","[2]; day 7, 17 mpk p.o. once daily",ns (p>0.05)
same,"Pinna thickness change rate at time point, Significance level","[2]; day 10, 17 mpk p.o. once daily",** (**p<0.01)
same,"Pinna thickness change rate at time point, Significance level","[2]; day 12, 17 mpk p.o. once daily",* (*p<0.05)
same,"Pinna thickness change rate at time point, Significance level","[2]; day 14, 17 mpk p.o. once daily",** (**p<0.01)
same,"Pinna thickness change rate at time point, Significance level","[2]; day 17, 17 mpk p.o. once daily",ns (p>0.05)
same,"Pinna thickness change rate at time point, Significance level","[2]; day 19, 17 mpk p.o. once daily",** (**p<0.01)
same,"Pinna thickness change rate at time point, Significance level","[2]; day 21, 17 mpk p.o. once daily",* (*p<0.05)
same,Number of inflammatory cells per mm,[2]; 17 mpk p.o. once daily 22 days,236 ± 26.59 cells per mm
"Cc1c(C#Cc2cnc3ccc(N4CCC(O)CC4)nn23)cccc1C(=O)Nc1cc(Cl)cc(C(F)(F)F)c1 [compound 1, N-(3-chloro-5-(trifluoromethyl)phenyl)-3-((6-(4-hydroxypiperidin-1-yl)imidazo[1,2-b]pyridazin-3-yl)ethynyl)-2-methylbenzamide]",IC50,TRKA,4.4 nM
same,IC50,DDR1,0.762 nM
same,IC50,TRKC,0.35 nM
same,IC50,DDR2,37.9 nM
same,IC50,CSF1R,14.7 nM
same,"Rate of change in body weight, Significance level",[1]; 3 mpk p.o. once daily 22 days,** (**p<0.01)
same,"Rate of change in body weight, Significance level",[1]; 10 mpk p.o. once daily 22 days,ns (p>0.05)
same,"Rate of change in body weight, Significance level",[1]; 30 mpk p.o. once daily 22 days,ns (p>0.05)
same,"Inflammatory cell content in right ear tissue, Significance level",[2]; 3 mpk p.o. once daily 22 days,*** (***p<0.001)
same,"Clinical scores of dorsal skin, Significance level",[2]; 3 mpk p.o. once daily 22 days,ns (p>0.05)
same,"Rate of change in the thickness of the pinna of the right ear, Significance level",[2]; 3 mpk p.o. once daily 22 days,* (*p<0.05)
same,"Thickness of dermis layer of right ear, Significance level",[2]; 3 mpk p.o. once daily 22 days,**** (****p<0.0001)
same,"Thickness of epidermal layer of right ear, Significance level",[2]; 3 mpk p.o. once daily 22 days,* (*p<0.05)
same,"Inflammatory cell content in right ear tissue, Significance level",[2]; 10 mpk p.o. once daily 22 days,*** (***p<0.001)
same,"Clinical scores of dorsal skin, Significance level",[2]; 10 mpk p.o. once daily 22 days,* (*p<0.05)
same,"Rate of change in the thickness of the pinna of the right ear, Significance level",[2]; 10 mpk p.o. once daily 22 days,**** (****p<0.0001)
same,"Thickness of dermis layer of right ear, Significance level",[2]; 10 mpk p.o. once daily 22 days,**** (****p<0.0001)
same,"Thickness of epidermal layer of right ear, Significance level",[2]; 10 mpk p.o. once daily 22 days,* (*p<0.05)
same,"Inflammatory cell content in right ear tissue, Significance level",[2]; 30 mpk p.o. once daily 22 days,*** (***p<0.001)
same,"Clinical scores of dorsal skin, Significance level",[2]; 30 mpk p.o. once daily 22 days,*** (***p<0.001)
same,"Rate of change in the thickness of the pinna of the right ear, Significance level",[2]; 30 mpk p.o. once daily 22 days,**** (****p<0.0001)
same,"Thickness of dermis layer of right ear, Significance level",[2]; 30 mpk p.o. once daily 22 days,**** (****p<0.0001)
same,"Thickness of epidermal layer of right ear, Significance level",[2]; 30 mpk p.o. once daily 22 days,* (*p<0.05)
same,"Pinna thickness change rate at time point, Significance level","[2]; day 3, 3 mpk p.o. once daily",ns (p>0.05)
same,"Pinna thickness change rate at time point, Significance level","[2]; day 3, 10 mpk p.o. once daily",ns (p>0.05)
same,"Pinna thickness change rate at time point, Significance level","[2]; day 3, 30 mpk p.o. once daily",** (**p<0.01)
same,"Pinna thickness change rate at time point, Significance level","[2]; day 5, 3 mpk p.o. once daily",ns (p>0.05)
same,"Pinna thickness change rate at time point, Significance level","[2]; day 5, 10 mpk p.o. once daily",ns (p>0.05)
same,"Pinna thickness change rate at time point, Significance level","[2]; day 5, 30 mpk p.o. once daily",** (**p<0.01)
same,"Pinna thickness change rate at time point, Significance level","[2]; day 7, 3 mpk p.o. once daily",ns (p>0.05)
same,"Pinna thickness change rate at time point, Significance level","[2]; day 7, 10 mpk p.o. once daily",ns (p>0.05)
same,"Pinna thickness change rate at time point, Significance level","[2]; day 7, 30 mpk p.o. once daily",** (**p<0.01)
same,"Pinna thickness change rate at time point, Significance level","[2]; day 10, 3 mpk p.o. once daily",* (*p<0.05)
same,"Pinna thickness change rate at time point, Significance level","[2]; day 10, 10 mpk p.o. once daily",** (**p<0.01)
same,"Pinna thickness change rate at time point, Significance level","[2]; day 10, 30 mpk p.o. once daily",** (**p<0.01)
same,"Pinna thickness change rate at time point, Significance level","[2]; day 12, 3 mpk p.o. once daily",ns (p>0.05)
same,"Pinna thickness change rate at time point, Significance level","[2]; day 12, 10 mpk p.o. once daily",ns (p>0.05)
same,"Pinna thickness change rate at time point, Significance level","[2]; day 12, 30 mpk p.o. once daily",** (**p<0.01)
same,"Pinna thickness change rate at time point, Significance level","[2]; day 14, 3 mpk p.o. once daily",ns (p>0.05)
same,"Pinna thickness change rate at time point, Significance level","[2]; day 14, 10 mpk p.o. once daily",** (**p<0.01)
same,"Pinna thickness change rate at time point, Significance level","[2]; day 14, 30 mpk p.o. once daily",** (**p<0.01)
same,"Pinna thickness change rate at time point, Significance level","[2]; day 17, 3 mpk p.o. once daily",ns (p>0.05)
same,"Pinna thickness change rate at time point, Significance level","[2]; day 17, 10 mpk p.o. once daily",ns (p>0.05)
same,"Pinna thickness change rate at time point, Significance level","[2]; day 17, 30 mpk p.o. once daily",* (*p<0.05)
same,"Pinna thickness change rate at time point, Significance level","[2]; day 19, 3 mpk p.o. once daily",ns (p>0.05)
same,"Pinna thickness change rate at time point, Significance level","[2]; day 19, 10 mpk p.o. once daily",** (**p<0.01)
same,"Pinna thickness change rate at time point, Significance level","[2]; day 19, 30 mpk p.o. once daily",*** (***p<0.001)
same,"Pinna thickness change rate at time point, Significance level","[2]; day 21, 3 mpk p.o. once daily",ns (p>0.05)
same,"Pinna thickness change rate at time point, Significance level","[2]; day 21, 10 mpk p.o. once daily",** (**p<0.01)
same,"Pinna thickness change rate at time point, Significance level","[2]; day 21, 30 mpk p.o. once daily",*** (***p<0.001)
same,Number of inflammatory cells per mm,[2]; 3 mpk p.o. once daily 22 days,189 ± 27.25 cells per mm
same,Number of inflammatory cells per mm,[2]; 10 mpk p.o. once daily 22 days,162 ± 18.31 cells per mm
same,Number of inflammatory cells per mm,[2]; 30 mpk p.o. once daily 22 days,160 ± 34.18 cells per mm
